Values after ≈ are worked out from the molar mass of the structure shown. Active and inactive are the calls of the source. The calls are words filed in the database; no cut-off is given here.
What was measured:
Staphylococcus aureus [1] = assay: Antibacterial activity against Staphylococcus aureus ATCC 29213 incubated for 16 to 18 hrs by CLSI based broth dilution method; assay type: functional; conditions: time 16-18 hrs
Staphylococcus aureus [2] = assay: Antibacterial activity against methicillin-resistant Staphylococcus aureus ATCC 43300 incubated for 16 to 18 hrs by CLSI based broth dilution method; assay type: functional; conditions: time 16-18 hrs
[3] = system: Staphylococcus epidermidis; assay: Antibacterial activity against Staphylococcus epidermidis ATCC 12228 incubated for 16 to 18 hrs by CLSI based broth dilution method; assay type: functional; conditions: time 16-18 hrs
Acinetobacter baumannii [4] = assay: Antibacterial activity against Acinetobacter baumannii ATCC 19606 incubated for 16 to 18 hrs by CLSI based broth dilution method; assay type: functional; conditions: time 16-18 hrs
Enterococcus faecalis [5] = assay: Antibacterial activity against Enterococcus faecalis ATCC 29212 incubated for 16 to 18 hrs by CLSI based broth dilution method; assay type: functional; conditions: time 16-18 hrs
Escherichia coli [6] = assay: Antibacterial activity against Escherichia coli ATCC 25922 incubated for 16 to 18 hrs by CLSI based broth dilution method; assay type: functional; conditions: time 16-18 hrs
Staphylococcus aureus [7] = assay: Drug resistance against methicillin-resistant Staphylococcus aureus ATCC 43300 assessed as fold increase in MIC measured after 10 passaging for 24 hrs; assay type: functional
[8] = target: T1, Dihydrofolate reductase (Homo sapiens) (UniProt P00374); assay: Inhibition of human DHFR at 1 uM incubated for 10 mins in presence of NADPH by colorimetry based analysis relative to control
T1 sequence (whole entry): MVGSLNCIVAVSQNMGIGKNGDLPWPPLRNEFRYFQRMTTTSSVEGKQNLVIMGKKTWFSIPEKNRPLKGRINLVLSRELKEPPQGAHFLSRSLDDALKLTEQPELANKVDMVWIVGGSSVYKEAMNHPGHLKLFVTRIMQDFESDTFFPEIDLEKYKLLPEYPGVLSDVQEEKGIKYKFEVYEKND

MCF7 = assay: Cytotoxicity against human MCF7 cells measured after 72 hrs by MTT assay; assay type: functional, cell-based; conditions: MCF7, 72 h
HGC-27 = assay: Cytotoxicity against human HGC-27 cells measured after 72 hrs by MTT assay; assay type: functional, cell-based; conditions: HGC-27, 72 h
HCT-116 = assay: Cytotoxicity against human HCT-116 cells measured after 72 hrs by MTT assay; assay type: functional, cell-based; conditions: HCT-116, 72 h
HepG2 = assay: Cytotoxicity against human HepG2 cells measured after 72 hrs by MTT assay; assay type: functional, cell-based; conditions: HepG2, 72 h
[9] = Toxicity in ICR mouse assessed as median lethal dose administered as single IP dose measured upto 8 days; conditions: in vivo, time < 8 day
Staphylococcus aureus [10] = assay: Antibacterial activity against methicillin-sensitive Staphylococcus aureus 15-1 incubated for 16 to 18 hrs by CLSI based broth dilution method; assay type: functional; conditions: time 16-18 hrs
Staphylococcus aureus [11] = assay: Antibacterial activity against methicillin-sensitive Staphylococcus aureus 15-2 incubated for 16 to 18 hrs by CLSI based broth dilution method; assay type: functional; conditions: time 16-18 hrs
Staphylococcus aureus [12] = assay: Antibacterial activity against methicillin-sensitive Staphylococcus aureus ATCC 29213 incubated for 16 to 18 hrs by CLSI based broth dilution method; assay type: functional; conditions: time 16-18 hrs
Staphylococcus aureus [13] = assay: Antibacterial activity against methicillin-sensitive Staphylococcus aureus ATCC 25923 incubated for 16 to 18 hrs by CLSI based broth dilution method; assay type: functional; conditions: time 16-18 hrs
Staphylococcus aureus [14] = assay: Antibacterial activity against methicillin-resistant Staphylococcus aureus ATCC 33591 incubated for 16 to 18 hrs by CLSI based broth dilution method; assay type: functional; conditions: time 16-18 hrs
Staphylococcus aureus [15] = assay: Antibacterial activity against vancomycin intermediate Staphylococcus aureus ATCC 700788 incubated for 16 to 18 hrs by CLSI based broth dilution method; assay type: functional; conditions: time 16-18 hrs
Staphylococcus aureus [16] = assay: Antibacterial activity against vancomycin intermediate Staphylococcus aureus ATCC 700699 incubated for 16 to 18 hrs by CLSI based broth dilution method; assay type: functional; conditions: time 16-18 hrs
Enterococcus faecalis [17] = assay: Antibacterial activity against Enterococcus faecalis EFA19-1 incubated for 16 to 18 hrs by CLSI based broth dilution method; assay type: functional; conditions: time 16-18 hrs
Enterococcus faecalis [18] = assay: Antibacterial activity against Enterococcus faecalis EFA19-2 incubated for 16 to 18 hrs by CLSI based broth dilution method; assay type: functional; conditions: time 16-18 hrs
Enterococcus = assay: Antibacterial activity against Vancomycin-resistant Enterococcus ATCC 51575 incubated for 16 to 18 hrs by CLSI based broth dilution method; assay type: functional; conditions: time 16-18 hrs
Escherichia coli [19] = assay: Antibacterial activity against Escherichia coli ATCC BAA-2340 incubated for 16 to 18 hrs by CLSI based broth dilution method; assay type: functional; conditions: time 16-18 hrs
Escherichia coli [20] = assay: Antibacterial activity against Escherichia coli ECO 15-1 incubated for 16 to 18 hrs by CLSI based broth dilution method; assay type: functional; conditions: time 16-18 hrs
Acinetobacter baumannii [21] = assay: Antibacterial activity against Acinetobacter baumannii ATCC 19606 assessed as reduction in microbial growth incubated for 16 to 18 hrs by CLSI based broth dilution method; assay type: functional; conditions: time 16-18 hrs
Acinetobacter baumannii [22] = assay: Antibacterial activity against Acinetobacter baumannii 20-2 incubated for 16 to 18 hrs by CLSI based broth dilution method; assay type: functional; conditions: time 16-18 hrs
Klebsiella pneumoniae [23] = assay: Antibacterial activity against Klebsiella pneumoniae 15-1 assessed as reduction in microbial growth incubated for 16 to 18 hrs by CLSI based broth dilution method; assay type: functional; conditions: time 16-18 hrs
Klebsiella pneumoniae [24] = assay: Antibacterial activity against Klebsiella pneumoniae ATCC 700603 assessed as reduction in microbial growth incubated for 16 to 18 hrs by CLSI based broth dilution method; assay type: functional; conditions: time 16-18 hrs
Acinetobacter baumannii [25] = assay: Antibacterial activity against Acinetobacter baumannii 20-1 incubated for 16 to 18 hrs by CLSI based broth dilution method; assay type: functional; conditions: time 16-18 hrs
Pseudomonas aeruginosa = assay: Antibacterial activity against Pseudomonas aeruginosa ATCC 27853 incubated for 16 to 18 hrs by CLSI based broth dilution method; assay type: functional; conditions: time 16-18 hrs
Staphylococcus aureus [26] = assay: Antibacterial activity against Staphylococcus aureus ATCC 29213 incubated for 16 to 18 hrs in absence of human plasma by CLSI based broth dilution method; assay type: functional; conditions: time 16-18 hrs
Staphylococcus aureus [27] = assay: Antibacterial activity against Staphylococcus aureus ATCC 29213 incubated for 16 to 18 hrs in presence of human plasma by CLSI based broth dilution method; assay type: functional; conditions: time 16-18 hrs
Staphylococcus aureus [28] = assay: Antibacterial activity against methicillin-resistant Staphylococcus aureus ATCC 43300 incubated for 16 to 18 hrs in absence of human plasma by CLSI based broth dilution method; assay type: functional; conditions: time 16-18 hrs
Staphylococcus aureus [29] = assay: Antibacterial activity against methicillin-resistant Staphylococcus aureus ATCC 43300 incubated for 16 to 18 hrs in presence of human plasma by CLSI based broth dilution method; assay type: functional; conditions: time 16-18 hrs
Escherichia coli [30] = assay: Antibacterial activity against Escherichia coli ATCC 25922 incubated for 16 to 18 hrs in absence of human plasma by CLSI based broth dilution method; assay type: functional; conditions: time 16-18 hrs
Escherichia coli [31] = assay: Antibacterial activity against Escherichia coli ATCC 25922 incubated for 16 to 18 hrs in presence of human plasma by CLSI based broth dilution method; assay type: functional; conditions: time 16-18 hrs
Staphylococcus aureus [32] = assay: Antibacterial activity against Methicillin-resistant Staphylococcus aureus ATCC 43300 infected in ip dosed ICR mouse thigh infection model assessed as reduction in bacterial growth measured after 24 hrs post-treatment; assay type: functional, organism-based; conditions: dose lower 7.5 mg/kg, dose upper […]

Row | Compound | MIC (Staphylococcus aureus [1]) [µg/mL] | MIC (Staphylococcus aureus [2]) [µg/mL] | MIC [3] [µg/mL] | MIC (Acinetobacter baumannii [4]) [µg/mL] | MIC (Enterococcus faecalis [5]) [µg/mL] | MIC (Escherichia coli [6]) [µg/mL] | inhibition [8] [%] | IC50 (MCF7) [nM] | IC50 (HGC-27) [nM] | IC50 (HCT-116) [nM] | IC50 (HepG2) [nM] | LD50 at 192 h [9] [mg/kg] | MIC (Staphylococcus aureus [10]) [µg/mL] | MIC (Staphylococcus aureus [11]) [µg/mL] | MIC (Staphylococcus aureus [12]) [µg/mL] | MIC (Staphylococcus aureus [13]) [µg/mL] | MIC (Staphylococcus aureus [14]) [µg/mL] | MIC (Escherichia coli [20]) [µg/mL] | MIC (Acinetobacter baumannii [21]) [µg/mL] | MIC (Acinetobacter baumannii [22]) [µg/mL] | other results
1 | Nc1nc(N)c2c(ccc3c2ccn3Cc2ccc(-c3ccccc3)cc2)n1 | 1 (≈ 2.74 µM) | 0.5 (≈ 1.37 µM) | ≤ 0.004 | > 32 | 0.25 (≈ 0.684 µM) | > 128 | 54.8 | 580 | 85 | 32 | 530 | 154 | – | – | – | – | – | – | – | – | fold change (FC) (Staphylococcus aureus [7]): 8
2 | C[C@H]1COc2c(N3CCN(C)CC3)c(F)cc3c(=O)c(C(=O)O)cn1c23 [LEVOFLOXACIN ANHYDROUS] | – | 0.25 (≈ 0.692 µM) | – | – | – | ≤ 0.03 | – | – | – | – | – | – | 16 (≈ 44.3 µM) | 64 (≈ 177 µM) | 0.25 (≈ 0.692 µM) | 0.25 (≈ 0.692 µM) | 0.25 (≈ 0.692 µM) | 8 (≈ 22.1 µM) | 0.25 | ≤ 0.03 | MIC (Staphylococcus aureus [15]): 32 µg/mL (≈ 88.6 µM); MIC (Staphylococcus aureus [16]): 64 µg/mL (≈ 177 µM); MIC (Enterococcus faecalis [17]): 1 µg/mL (≈ 2.77 µM); MIC (Enterococcus faecalis [18]): 2 µg/mL (≈ 5.53 µM); MIC (Enterococcus): 1 µg/mL (≈ 2.77 µM); MIC (Escherichia coli [19]): 32 µg/mL (≈ 88.6 µM)
3 | COc1cc(Cc2cnc(N)nc2N)cc(OC)c1OC [TRIMETHOPRIM] | 1 (≈ 3.44 µM) | 0.5 (≈ 1.72 µM) | ≤ 0.004 | 16 (≈ 55.1 µM) | 0.5 (≈ 1.72 µM) | 0.5 (≈ 1.72 µM) | – | – | – | – | – | > 800 | 0.5 (≈ 1.72 µM) | 0.25 (≈ 0.861 µM) | 1 (≈ 3.44 µM) | 1 (≈ 3.44 µM) | 1 (≈ 3.44 µM) | > 64 | 16 | 16 (≈ 55.1 µM) | MIC (Staphylococcus aureus [15]): 0.5 µg/mL (≈ 1.72 µM); MIC (Staphylococcus aureus [16]): 1 µg/mL (≈ 3.44 µM); MIC (Enterococcus faecalis [17]): 0.25 µg/mL (≈ 0.861 µM); MIC (Enterococcus faecalis [18]): 0.5 µg/mL (≈ 1.72 µM); MIC (Enterococcus): ≤ 0.03 µg/mL; MIC (Escherichia coli [19]): 64 µg/mL (≈ 220 µM); MIC (Klebsiella pneumoniae [23]): 8 µg/mL; MIC (Klebsiella pneumoniae [24]): 4 µg/mL; MIC (Acinetobacter baumannii [25]): > 64 µg/mL; MIC (Pseudomonas aeruginosa): > 64 µg/mL; MIC (Staphylococcus aureus [26]): 1 µg/mL (≈ 3.44 µM); MIC (Staphylococcus aureus [27]): 1 µg/mL; MIC (Staphylococcus aureus [28]): 0.5 µg/mL (≈ 1.72 µM); MIC (Staphylococcus aureus [29]): 0.5 µg/mL; MIC (Escherichia coli [30]): 0.5 µg/mL (≈ 1.72 µM); MIC (Escherichia coli [31]): 0.5 µg/mL; Activity (Staphylococcus aureus [32]): Active
4 | Nc1nc(N)c2c(ccc3c2ccn3Cc2ccc3ccccc3n2)n1 | 0.06 (≈ 0.176 µM) | 0.03 (≈ 0.0881 µM) | 0.25 (≈ 0.734 µM) | 4 (≈ 11.8 µM) | 0.06 (≈ 0.176 µM) | 0.5 (≈ 1.47 µM) | 74.1 | 830 | 210 | > 10000 | 270 | – | ≤ 0.03 | – | 0.06 (≈ 0.176 µM) | 0.125 (≈ 0.367 µM) | – | > 64 | 4 | 2 (≈ 5.88 µM) | MIC (Klebsiella pneumoniae [23]): 4 µg/mL; MIC (Klebsiella pneumoniae [24]): 2 µg/mL; MIC (Acinetobacter baumannii [25]): > 64 µg/mL; MIC (Pseudomonas aeruginosa): > 64 µg/mL
